Consider four compounds from paper PMC3914206.

What all share (type): binding
Settings in all cases: Compound Concentration 10 µM

The target of assay [1] is T1, panel of 442 kinases (Homo sapiens, UniProt Q8N752).
T1 construct: purchased KINOMEscan
T1 sequence (Q8N752 1-337): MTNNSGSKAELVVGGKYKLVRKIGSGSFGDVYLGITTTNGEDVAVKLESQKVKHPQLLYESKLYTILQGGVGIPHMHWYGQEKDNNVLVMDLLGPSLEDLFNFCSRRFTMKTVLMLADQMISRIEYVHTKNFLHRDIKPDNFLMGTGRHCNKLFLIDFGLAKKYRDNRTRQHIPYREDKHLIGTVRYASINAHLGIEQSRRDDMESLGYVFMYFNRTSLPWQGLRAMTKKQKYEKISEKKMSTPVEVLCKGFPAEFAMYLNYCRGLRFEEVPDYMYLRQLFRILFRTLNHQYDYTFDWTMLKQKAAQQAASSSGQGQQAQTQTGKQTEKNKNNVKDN
The text has this: (§1) We assessed the selectivity of members of this scaffold using the KINOMEscan methodology across a near comprehensive panel of 442 kinases [[18,27]].

Assay [2] concerns the target T2, panel of 442 kinases (Homo sapiens, UniProt Q8NE63).
T2 construct: purchased KINOMEscan
T2 sequence (Q8NE63 1-616): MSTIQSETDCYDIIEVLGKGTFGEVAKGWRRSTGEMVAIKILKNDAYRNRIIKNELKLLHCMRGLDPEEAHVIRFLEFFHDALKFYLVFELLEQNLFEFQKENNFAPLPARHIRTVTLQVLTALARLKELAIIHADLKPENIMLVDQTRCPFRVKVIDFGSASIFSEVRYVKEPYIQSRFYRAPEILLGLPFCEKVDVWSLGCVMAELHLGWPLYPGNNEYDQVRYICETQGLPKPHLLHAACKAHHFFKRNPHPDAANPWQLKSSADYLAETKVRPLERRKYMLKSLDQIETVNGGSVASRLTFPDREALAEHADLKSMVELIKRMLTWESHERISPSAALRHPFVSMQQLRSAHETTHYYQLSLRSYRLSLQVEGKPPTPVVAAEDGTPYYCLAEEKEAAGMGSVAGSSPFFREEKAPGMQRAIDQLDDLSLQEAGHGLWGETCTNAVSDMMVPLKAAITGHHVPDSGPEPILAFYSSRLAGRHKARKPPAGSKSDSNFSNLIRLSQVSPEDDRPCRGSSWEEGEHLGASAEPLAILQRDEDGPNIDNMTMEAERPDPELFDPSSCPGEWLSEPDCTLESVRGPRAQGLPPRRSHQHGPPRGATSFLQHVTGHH
Excerpt: as §1

Assay [3] concerns the target T3, panel of 442 kinases (Homo sapiens, UniProt Q9Y463).
T3 construct: purchased KINOMEscan
Excerpt: as §1

Each structure is given as a SMILES string.

T3 sequence (Q9Y463 whole entry): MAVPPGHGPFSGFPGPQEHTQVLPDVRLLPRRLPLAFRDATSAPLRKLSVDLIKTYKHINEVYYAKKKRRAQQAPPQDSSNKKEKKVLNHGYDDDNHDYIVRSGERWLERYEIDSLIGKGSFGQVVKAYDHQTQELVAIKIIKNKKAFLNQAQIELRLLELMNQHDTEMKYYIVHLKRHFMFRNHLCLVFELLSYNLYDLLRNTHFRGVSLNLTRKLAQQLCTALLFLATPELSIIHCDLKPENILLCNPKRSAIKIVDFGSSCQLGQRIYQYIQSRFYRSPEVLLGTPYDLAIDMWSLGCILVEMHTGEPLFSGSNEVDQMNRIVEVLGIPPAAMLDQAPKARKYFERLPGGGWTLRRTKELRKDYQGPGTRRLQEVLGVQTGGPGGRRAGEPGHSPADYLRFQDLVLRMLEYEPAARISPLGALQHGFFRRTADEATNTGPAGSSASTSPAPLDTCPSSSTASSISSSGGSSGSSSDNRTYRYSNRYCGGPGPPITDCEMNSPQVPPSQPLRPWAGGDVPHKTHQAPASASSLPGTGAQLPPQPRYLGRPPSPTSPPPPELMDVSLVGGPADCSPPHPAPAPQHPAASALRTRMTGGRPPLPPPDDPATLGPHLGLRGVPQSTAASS

As to `CCOc1cc(C(=O)N2CCC(N3CCN(C)CC3)CC2)ccc1Nc1ncc2c(n1)N(C1CCCC1)c1ccccc1C(=O)N2C` [Compound 26], the “KINOMEscan: CSNK1A1L” value in assay [1] is recorded as 99. Moreover, in assay [2], the “KINOMEscan: HIPK4” value was 100. For the same compound, the “KINOMEscan: DYRK1B” value in assay [3] came out at 71.

Regarding `COc1cc(C(=O)N2CCC(N3CCN(C)CC3)CC2)ccc1Nc1ncc2c(n1)N1CCc3cccc(c31)C(=O)N2C` [Compound 24], the “KINOMEscan: HIPK4” value in assay [2] is 50.

For the compound `COc1cc(C(=O)N2CCC(N3CCN(C)CC3)CC2)ccc1Nc1ncc2c(n1)N(C)c1ccccc1C(=O)N2C` [15 (LRRK2-IN-1)], in assay [1], the “KINOMEscan: CSNK1A1L” value came out at 100. For the same compound, the “KINOMEscan: HIPK4” value in assay [2] is listed as 100. For the same compound, the “KINOMEscan: DYRK1B” value in assay [3] is reported as 94.

`COc1cc(C(=O)N2CCC(N3CCN(C)CC3)CC2)ccc1Nc1ncc2c(n1)N(C1CCCC1)c1ccccc1C(=O)N2C` [Compound 25, 11-cyclopentyl-2-((2-methoxy-4-(4-(4-methylpiperazin-1-yl)piperidine-1-carbonyl)phenyl)amino)-5-methyl-5H-benzo[e]pyrimido[5,4-b][1,4]diazepin-6(11H)-one]: the “KINOMEscan: CSNK1A1L” value in assay [1] stood at 100. Further, the “KINOMEscan: HIPK4” value in assay [2] came out at 87. Further, the “KINOMEscan: DYRK1B” value in assay [3] is given as 69.
